Experimental data taken from US20230124764A1, “LACTOBACILLUS HARBINENSIS AND APPLICATION THEREOF” (priority 2018, published 2023).
≈ marks a conversion by molar mass, not a printed value. Read-outs that look alike come from different tables or passages of the source.

How the values were obtained:
[1] = system: Lacticaseibacillus casei-01; assay: Antibiotic sensitivity, MIC on antibacterial MRS agar plates; assay type: cell-based; conditions: for MIC: Lacticaseibacillus
Experimental: (§1) According to the criteria for determining bacterial resistance (2012 edition) stipulated by the European Food Safety Agency, antibiotics including ampicillin, vancomycin, gentamicin, kanamycin, streptomycin, erythromycin, clindamycin, tetracycline and chloramphenicol were used to prepare antibacterial stock solutions with a concentration of 5120 μg/mL. They were diluted to the required concentration by a diluent preparation method before use, and were added to the corresponding medium according with certain proportion. 9.0 mL of the modified MRS agar media were added into large test tubes. After sterilizing at 121° C. for 15 min, they were placed in a water bath (50° C.) at a constant temperature for later use. 1.0 mL of the antibacterial diluents were pipetted into the large test tubes, followed by vortexing and mixing immediately. The diluents were then poured into a sterile petri dish, and bacteriostatic plates with a certain drug concentration (μg/mL) were prepared after solidification. For each antibiotics, 8 concentration gradient antibacterial plates were prepared according to a ½ dilution method. […] At the same time, a blank plate without inoculation was used as a control. […] 3 parallel experiments were conducted. The lactic acid bacteria susceptibility result was shown in Table 1 determined according to the relevant standards: […] The second step was the preparation of antibacterial plates: antibiotics including ampicillin, vancomycin, gentamicin, kanamycin, streptomycin, erythromycin, clindamycin, tetracycline and chloramphenicol were used to prepare antibacterial stock solutions at a concentration of […]. The solutions were diluted to the required concentration before use according to a diluent preparation method. 1.0 mL of the antibacterial diluents were pipetted into large test tubes with 9.0 mL of modified MRS agar media, followed by vortexing and mixing immediately. Then, they were poured on sterile plates. After solidification, antibacterial plates with a certain antibiotic concentration (m/mL) were obtained. At the same time, a control plate without antibiotic was prepared. […] At the same time, a blank plate without inoculation was used as a control.

[2] = system: Schleiferilactobacillus harbinensis M1; assay: as above; assay type: cell-based; conditions: for MIC: Schleiferilactobacillus harbinensis
Experimental: as §1

[3] = CASEI01, against L. casei-01, agar plates, 37° C., 16-20 hours, read-out: MIC value
[4] = against S. harbinensis M1, agar plates, 37° C., 16-20 hours, read-out: MIC value

Molecule	MIC [1, 3] [mg/L]	MIC [2, 4] [mg/L]	other results
CC1(C)S[C@@H]2[C@H](NC(=O)[C@H](N)c3ccccc3)C(=O)N2[C@H]1C(=O)O [ampicillin]	1 (≈ 2.86 µM)	1 (≈ 2.86 µM)	
O=C(N[C@H](CO)[C@H](O)c1ccc([N+](=O)[O-])cc1)C(Cl)Cl [chloramphenicol]	4 (≈ 12.4 µM)	2 (≈ 6.19 µM)	
CCC[C@@H]1C[C@@H](C(=O)N[C@@H]([C@H]2O[C@H](SC)[C@H](O)[C@@H](O)[C@H]2O)[C@H](C)Cl)N(C)C1 [clindamycin]	0.125 (≈ 0.294 µM)	0.5 (≈ 1.18 µM)	
CC[C@H]1OC(=O)[C@H](C)[C@@H](O[C@H]2C[C@@](C)(OC)[C@@H](O)[C@H](C)O2)[C@H](C)[C@@H](O[C@@H]2O[C@H](C)C[C@H](N(C)C)[C@H]2O)[C@](C)(O)C[C@@H](C)C(=O)[C@H](C)[C@@H](O)[C@]1(C)O [erythromycin]	0.5 (≈ 0.681 µM)	0.5 (≈ 0.681 µM)	
NC[C@H]1O[C@H](O[C@H]2[C@H](O)[C@@H](O[C@H]3O[C@H](CO)[C@@H](O)[C@H](N)[C@H]3O)[C@H](N)C[C@@H]2N)[C@H](O)[C@@H](O)[C@@H]1O [kanamycin]	16 (≈ 33 µM)	16 (≈ 33 µM)	
[H]/N=C(/N)N[C@H]1[C@H](O)[C@@H](O)[C@H](O[C@@H]2O[C@@H](C)[C@](O)(C=O)[C@H]2O[C@@H]2O[C@@H](CO)[C@H](O)[C@@H](O)[C@@H]2NC)[C@@H](N/C(N)=N\[H])[C@@H]1O [streptomycin]	16 (≈ 27.5 µM)	8 (≈ 13.8 µM)	
CN(C)[C@@H]1C(O)=C(C(N)=O)C(=O)[C@@]2(O)C(O)=C3C(=O)c4c(O)cccc4[C@@](C)(O)[C@H]3C[C@@H]12 [tetracycline]	2 (≈ 4.5 µM)	2 (≈ 4.5 µM)	
CN[C@H](CC(C)C)C(=O)N[C@H]1C(=O)N[C@@H](CC(N)=O)C(=O)N[C@H]2C(=O)N[C@H]3C(=O)N[C@H](C(=O)N[C@H](C(=O)O)c4cc(O)cc(O)c4-c4cc3ccc4O)[C@H](O)c3ccc(c(Cl)c3)Oc3cc2cc(c3O[C@@H]2O[C@H](CO)[C@@H](O)[C@H](O)[C@H]2O[C@H]2C[C@](C)(N)[C@H](O)[C@H](C)O2)Oc2ccc(cc2Cl)[C@H]1O [vancomycin]			MIC ([1]; CASEI01, read-out: MIC value): 4 mg/L (≈ 2.76 µM); MIC ([2]; M1, read-out: MIC value): 2 mg/L (≈ 1.38 µM)
gentamicin			MIC value ([1]; against L. casei-01, agar plates, 37° C., 16-20 hours): 16 mg/L; MIC value ([2]; against S. harbinensis M1, agar plates, 37° C., 16-20 hours): 16 mg/L
